From patent publication US9540323B2 (BRISTOL-MYERS SQUIBB COMPANY, priority 2012, dated 2017)

Legend:
[1] = tested on: human platelet rich plasma (PRP); experiment: ADP induced platelet aggregation assay; settings: Homo sapiens, Platelet, 5 min, read-out: PA IC50 (μM) @ 10 μM ADP, human PRP, 10 μM ADP, AUC at 5 minute
[2] = biological target: cloned human P2Y1 receptors (Homo sapiens (Human), UniProt P47900); experiment: Binding Assay B - Scintillation Proximity Assay (SPA) for P2Y1 binding, [33P] 2MeS-ADP; settings: SPA, 0.3 nM [33P] 2MeS-ADP, Cheng-Prusoff; read-out: P2Y1 Ki (nM) using binding assay B
Chain of cloned human P2Y1 receptors (P47900 whole entry): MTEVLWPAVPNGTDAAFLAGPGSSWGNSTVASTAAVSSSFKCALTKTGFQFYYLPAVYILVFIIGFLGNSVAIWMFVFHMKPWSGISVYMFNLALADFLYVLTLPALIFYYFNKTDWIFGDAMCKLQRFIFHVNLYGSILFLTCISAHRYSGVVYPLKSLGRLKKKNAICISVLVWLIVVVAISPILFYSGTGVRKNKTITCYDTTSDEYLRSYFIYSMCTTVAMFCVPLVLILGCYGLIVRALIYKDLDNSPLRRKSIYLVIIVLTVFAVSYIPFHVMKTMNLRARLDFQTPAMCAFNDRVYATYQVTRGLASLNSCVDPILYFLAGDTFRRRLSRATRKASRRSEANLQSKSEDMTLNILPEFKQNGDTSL
Protocol: Binding Assay B—Scintillation Proximity Assay (SPA) for P2Y1 Binding
A SPA membrane binding assay was used to identify inhibitors of [^33P] […] Reactions were allowed to proceed to completion at room temperature for 1 hour followed by centrifugation of the plate for 5 min. About 40 μL of the aqueous solution was aspirated. Plates were sealed and the [^33P]

## Cc1nc(NC(=O)Nc2ccccc2N2CC(C)(C)c3c(C(F)(F)F)ccc(O)c32)cs1 [Example 15, 1-(2-(7-Hydroxy-3,3-dimethyl-4-(trifluoromethyl)indolin-1-yl)phenyl)-3-(2-methylthiazol-4-yl)urea]
[1]
  IC50: 0.95 µM
[2]
  Ki: 7.3 nM

## CC1(C)CN(c2ccccc2NC(=O)Nc2csc(Cl)n2)c2c(O)ccc(C(F)(F)F)c21 [Example 16, 1-(2-Chlorothiazol-4-yl)-3-(2-(7-hydroxy-3,3-dimethyl-4-(trifluoromethyl)indolin-1-yl)phenyl)urea]
[1]
  IC50: 0.12 µM
[2]
  Ki: 6.2 nM

## CC1(C)CN(c2ccccc2NC(=O)Nc2ccc(C(F)(F)F)cc2)c2c(O)ccc(C(F)(F)F)c21 [Example 17, 1-(2-(7-Hydroxy-3,3-dimethyl-4-(trifluoromethyl)indolin-1-yl)phenyl)-3-(4-(trifluoro-methyl)phenyl)urea]
[1]
  IC50: 0.27 µM
[2]
  Ki: 16.4 nM

## CC1(C)CN(c2ccccc2NC(=O)Nc2nc3ccc(F)cc3s2)c2c(O)ccc(C(F)(F)F)c21 [Example 18, 1-(6-Fluorobenzo[d]thiazol-2-yl)-3-(2-(7-hydroxy-3,3-dimethyl-4-(trifluoromethyl)indolin-1-yl)phenyl)urea]
[1]
  IC50: 0.17 µM
[2]
  Ki: 12.4 nM

## CC1(C)CN(c2ccccc2NC(=O)Nc2nc3ccc(Cl)cc3s2)c2c(O)ccc(C(F)(F)F)c21 [Example 19, 1-(6-Chlorobenzo[d]thiazol-2-yl)-3-(2-(7-hydroxy-3,3-dimethyl-4-(trifluoromethyl)indolin-1-yl)phenyl)urea]
[1]
  IC50: 0.12 µM
[2]
  Ki: 23.6 nM

## CCN1CCc2nc(NC(=O)Nc3ccccc3N3CC(C)(C)c4c(C(F)(F)F)ccc(O)c43)sc2C1 [Example 20, 1-(5-Ethyl-4,5,6,7-tetrahydrothiazolo[5,4-c]pyridin-2-yl)-3-(2-(7-hydroxy-3,3-dimethyl-4-(trifluoromethyl)indolin-1-yl)phenyl)urea]
[1]
  IC50: 0.95 µM
[2]
  Ki: 18.6 nM

## CC(C)CN1CCc2nc(NC(=O)Nc3ccccc3N3CC(C)(C)c4c(C(F)(F)F)ccc(O)c43)sc2C1 [Example 21, 1-(2-(7-Hydroxy-3,3-dimethyl-4-(trifluoromethyl)indolin-1-yl)phenyl)-3-(5-isobutyl-4,5,6,7-tetrahydrothiazolo[5,4-c]pyridin-2-yl)urea]
[1]
  IC50: 0.07 µM
[2]
  Ki: 7.9 nM

## CC(C)(C)CN1CCc2nc(NC(=O)Nc3ccccc3N3CC(C)(C)c4c(C(F)(F)F)ccc(O)c43)sc2C1 [Example 22, 1-(2-(7-Hydroxy-3,3-dimethyl-4-(trifluoromethyl)indolin-1-yl)phenyl)-3-(5-neopentyl-4,5,6,7-tetrahydrothiazolo[5,4-c]pyridin-2-yl)urea]
[1]
  IC50: 0.21 µM
[2]
  Ki: 8 nM

## CC1(C)CN(c2ccccc2NC(=O)Nc2nc3c(s2)CN(CC2CC2)CC3)c2c(O)ccc(C(F)(F)F)c21 [Example 23, 1-(5-(Cyclopropylmethyl)-4,5,6,7-tetrahydrothiazolo[5,4-c]pyridin-2-yl)-3-(2-(7-hydroxy-3,3-dimethyl-4-(trifluoromethyl)indolin-1-yl)phenyl)urea]
[1]
  IC50: 1.01 µM
[2]
  Ki: 10.4 nM

## CCC1(CC)CN(c2ccccc2NC(=O)Nc2ccc(OC(F)(F)F)cc2)c2c(O)ccc(C(F)(F)F)c21 [Example 24, 1-(2-(3,3-Diethyl-7-hydroxy-4-(trifluoromethyl)indolin-1-yl)phenyl)-3-(4-(trifluoromethoxy)phenyl)urea]
[1]
  IC50: 0.22 µM
[2]
  Ki: 7.6 nM

## CCC1(CC)CN(c2ccccc2NC(=O)Nc2ccc(C3CCN(CC(C)(C)C)CC3)cc2)c2c(O)ccc(C(F)(F)F)c21 [Example 25, 1-(2-(3,3-Diethyl-7-hydroxy-4-(trifluoromethyl)indolin-1-yl)phenyl)-3-(4-(1-neopentylpiperidin-4-yl)phenyl)urea]
[1]
  IC50: 0.26 µM
[2]
  Ki: 6.3 nM

## CCC1(CC)CN(c2ccccc2NC(=O)Nc2ccc(C(C)(C)C)cc2)c2c(O)ccc(F)c21 [Example 26, 1-(4-tert-Butylphenyl)-3-(2-(3,3-diethyl-4-fluoro-7-hydroxyindolin-1-yl)phenyl)urea]
[1]
  IC50: 0.98 µM
[2]
  Ki: 5.1 nM

## CCc1ccc(NC(=O)Nc2ccccc2N2CC(CC)(CC)c3c(F)ccc(O)c32)cc1 [Example 27, 1-(2-(3,3-Diethyl-4-fluoro-7-hydroxyindolin-1-yl)phenyl)-3-(4-ethylphenyl)urea]
[1]
  IC50: 1.02 µM
[2]
  Ki: 3.1 nM

## CCC1(CC)CN(c2ccccc2NC(=O)Nc2ccc(C3CCN(CC(C)C)CC3)cc2)c2c(O)ccc(F)c21 [Example 28, 1-(2-(3,3-Diethyl-4-fluoro-7-hydroxyindolin-1-yl)phenyl)-3-(4-(1-isobutylpiperidin-4-yl)phenyl)urea]
[1]
  IC50: 0.54 µM
[2]
  Ki: 8.1 nM

## CCC1(CC)CN(c2ccccc2NC(=O)Nc2ccc(C3CCCN3CC(C)(C)C)cc2)c2c(O)ccc(F)c21 (stereo not shown) [Example 29, 1-(2-(3,3-Diethyl-4-fluoro-7-hydroxyindolin-1-yl)phenyl)-3-(4-(1-neopentylpyrrolidin-2-yl)phenyl)urea]
[1]
  IC50: 0.3 µM
[2]
  Ki: 3.6 nM

## CCC1(CC)CN(c2ccccc2NC(=O)Nc2ccc(C3CCCN3CC(C)C)cc2)c2c(O)ccc(F)c21 (stereo not shown) [Example 30, 1-(2-(3,3-Diethyl-4-fluoro-7-hydroxyindolin-1-yl)phenyl)-3-(4-(1-isobutylpyrrolidin-2-yl)phenyl)urea]
[1]
  IC50: 0.28 µM
[2]
  Ki: 5.1 nM

## CCC1(CC)CN(c2ccccc2NC(=O)Nc2csc(Cl)n2)c2c(O)ccc(F)c21 [Example 31, 1-(2-Chlorothiazol-4-yl)-3-(2-(3,3-diethyl-4-fluoro-7-hydroxyindolin-1-yl)phenyl)urea]
[1]
  IC50: 0.53 µM
[2]
  Ki: 3.3 nM

## CCSc1nsc(NC(=O)Nc2ccccc2N2CC(CC)(CC)c3c(F)ccc(O)c32)n1 [Example 33, 1-(2-(3,3-Diethyl-4-fluoro-7-hydroxyindolin-1-yl)phenyl)-3-(3-(ethylthio)-1,2,4-thiadiazol-5-yl)urea]
[1]
  IC50: 0.55 µM
[2]
  Ki: 7.6 nM

## CC(C)CN1CCCC1c1ccc(NC(=O)Nc2ccccc2N2CC(C)(C)c3c(F)ccc(O)c32)cc1 (stereo not shown) [Example 34, 1-(2-(4-Fluoro-7-hydroxy-3,3-dimethylindolin-1-yl)phenyl)-3-(4-(1-isobutylpyrrolidin-2-yl)phenyl)urea]
[1]
  IC50: 1.07 µM
[2]
  Ki: 9.8 nM

## CCC1(CC)CN(c2ccccc2NC(=O)Nc2ccc(OC(F)(F)F)cc2)c2c1ccc(F)c2O [Example 35, 1-(2-(3,3-Diethyl-6-fluoro-7-hydroxyindolin-1-yl)phenyl)-3-(4-(trifluoromethoxy)phenyl)urea]
[1]
  IC50: 0.38 µM
[2]
  Ki: 13.8 nM

## CCC1(CC)CN(c2ccccc2NC(=O)Nc2ccc(C3CCN(CC(C)(C)C)CC3)cc2)c2c1ccc(F)c2O [Example 37, 1-(2-(3,3-Diethyl-6-fluoro-7-hydroxyindolin-1-yl)phenyl)-3-(4-(1-neopentylpiperidin-4-yl)phenyl)urea]
[1]
  IC50: 0.89 µM
[2]
  Ki: 8.7 nM

## CCC1(CC)CN(c2ccccc2NC(=O)Nc2ccc(C(C)(C)C)cc2)c2c1ccc(F)c2O [Example 38, 1-(4-tert-Butylphenyl)-3-(2-(3,3-diethyl-6-fluoro-7-hydroxyindolin-1-yl)phenyl)urea]
[1]
  IC50: 0.43 µM
[2]
  Ki: 14.8 nM

## CCC1(CC)CN(c2ccccc2NC(=O)Nc2ccc(OC(F)(F)F)cc2)c2c(O)ccc(Br)c21 [Example 39, 1-(2-(3,3-Diethyl-4-bromo-7-hydroxyindolin-1-yl)phenyl)-3-(4-(trifluoromethoxy)phenyl)urea]
[1]
  IC50: 0.51 µM
[2]
  Ki: 18.8 nM
